Values of other authors, collected in patent US4337247A, “Tetrapeptidesemicarbazide derivatives and their production and use” (Takeda Chemical Industries, Ltd., priority 1979, dated 1982).

Settings: for morphinomimetic activity: direct intracerebral administration; for analgesic effect: intravenous route

Row | Substance | morphinomimetic activity | analgesic effect
1 | H-Tyr-Gly-Gly-Phe-Leu-OH | show morphinomimetic activity | do not produce analgesic effects
2 | β-endorphine (YGGFMTSEKSQTPLVTLFKNAIIKNAYKKGE; Beta-endorphin; UniProt P01189 237-267, looked up) [polypeptide consisting of 31 amino acids, considered to be derived from the carboxy-terminal of β-lipotrophine] | – | displays an overt analgesic action
3 | H-Tyr-Gly-Gly-Phe-Met-OH (H-YGGFM-OH) [enkephalin, pentapeptide isolated from the pig brain] | show morphinomimetic activity | do not produce analgesic effects
